The values that follow come from the RepoRT retention time repository (doi:10.1016/j.aca.2011.01.006).

The data set in a line: Waters SunFire C18, 150 × 2.1 mm, 3.5 µm, 35 °C, 0.3 mL/min, estimated dead time 1.1 min; A: water + 0.1% formic acid; B: acetonitrile + 0.1% formic acid; gradient (min/%B) 0/20 5/20 20/50 25/100. As to conditions: stereoisomer not certain.
As for `Cc1c(NC=O)c(=O)n(-c2ccccc2)n1C`, the LC retention time was 2.6 min.
Under `CCCCCc1cc(O)c2c(c1)OC(C)(C)C1CCC(C(=O)O)=CC21` (centres undefined) stands 25.1 min.
Turning to `CN1C2CCC1C(C(=O)O)C(OC(=O)c1ccccc1)C2` (centres undefined), the LC retention time is 2.6 min.
Turning to `Nc1nc(N)c2nc(-c3ccccc3)c(N)nc2n1`, the LC retention time is 2.9 min.
Then `CCCC[N+]1(C)C2CC(OC(=O)C(CO)c3ccccc3)CC1C1OC12` (centres undefined), with 2.3 min; and `CCCCCCCCC(=O)NCc1ccc(O)c(OC)c1`, with 22.4 min.
Regarding `CCN(CCO)CCn1c(Cc2ccccc2)nc2c1c(=O)n(C)c(=O)n2C`, the LC retention time was 1.5 min.
Regarding `CC(C)[N+](C)(CCC(C(N)=O)(c1ccccc1)c1ccccc1)C(C)C`, the LC retention time is 3.4 min.
Under `CCCn1cnc2c1c(=O)n(CCCCC(C)=O)c(=O)n2C` stands 12.1 min; under `CCCc1nc(C)c2c(=O)[nH]c(-c3cc(S(=O)(=O)N4CCN(CC)CC4)ccc3OCC)nn12`, 3.4 min; under `CC12CCC(=O)C=C1CCC1C2C(O)CC2(C)C1CCC2(O)C(=O)CO` (centres undefined), 12.6 min.
On to `CC12CCC(=O)C=C1C=CC1C2CCC2(C)C1CCC2(O)CCC(=O)O` (centres undefined), for which the LC retention time was 16.1 min.
With `Cn1c(=O)c2c(ncn2C)n(C)c1=O`, the LC retention time is 2.4 min.
Then `Cc1cccc(Nc2ccncc2S(=O)(=O)NC(=O)NC(C)C)c1`, with 8.5 min; and `CCC1(c2cnc[nH]2)Cc2ccccc2C1`, with 3 min; and `O=C1CN(N=Cc2ccc(-c3ccc([N+](=O)[O-])cc3)o2)C(=O)N1`, with 15.5 min.
On to `COc1ccc2nc(S(=O)Cc3ncc(CO)c(OC)c3C)[nH]c2c1` (centres undefined), for which the LC retention time was 2.7 min.
Then `CN1CC(=O)N2C(Cc3c([nH]c4ccccc34)C2c2ccc3c(c2)OCO3)C1=O` (centres undefined), with 17.4 min; and `CN(C)CCCN1c2ccccc2CCc2ccccc21`, with 9.6 min.
For the molecule `Cn1c(=O)c2c(ncn2CC(=O)O)n(C)c1=O`, the LC retention time was 2.42 min.
Then `Oc1ccc2c(c1)C13CCCCC1(O)C(C2)N(CC1CCC1)CC3` (centres undefined), with 2.5 min.
Take `CCCCOc1cc(C(=O)OCCN(CC)CC)ccc1N`: the LC retention time is 4.2 min.
On to `CCC1(c2ccccc2)C(=O)NC(=O)NC1=O`, for which the LC retention time was 4.9 min.
Then `CC(=O)SC1CC2=CC(=O)CCC2(C)C2CCC3(C)C(CCC34CCC(=O)O4)C12` (centres undefined), with 22 min.
As for `COc1cc(CNC(=O)CCCCC=CC(C)C)ccc1O`, the LC retention time is 22.6 min.
Regarding `CCCC(Cc1ccccc1)N1CCCC1` (centres undefined), the LC retention time is 2.9 min.
For `CCCCC1C(=O)N(c2ccccc2)N(c2ccccc2)C1=O`, the LC retention time was 24 min.
Under `CCCCNc1cc(C(=O)O)cc(S(N)(=O)=O)c1Oc1ccccc1` stands 20.7 min; under `CN(C)CCCOc1nn(Cc2ccccc2)c2ccccc12`, 9.9 min.
Then `CS(=O)(=O)c1ccc(C2=C(c3ccccc3)C(=O)OC2)cc1`, with 16.8 min; and `Cn1cnc2c1c(=O)[nH]c(=O)n2C`, with 2 min; and `CC12CCC(=O)C=C1C=CC1C2CCC2(C)C1CCC21CCC(=O)O1` (centres undefined), with 22 min.
Consider `COc1ccc2nc(S(=O)Cc3ncc(C)c(OC)c3C)[nH]c2c1` (centres undefined), for which the LC retention time was 4.2 min.
Then `Cc1onc(-c2ccccc2)c1-c1ccc(S(N)(=O)=O)cc1`, with 18.5 min; and `CCCCC1C(=O)N(c2ccccc2)N(c2ccc(O)cc2)C1=O` (centres undefined), with 19.8 min; and `CC(C)(C)NCC(O)COc1nsnc1N1CCOCC1` (centres undefined), with 1.8 min.
As for `CN1C(C(=O)Nc2ccc(O)cn2)=C(O)c2ccccc2S1(=O)=O`, the LC retention time was 15.8 min.
With `CN(C)CCCN1c2ccccc2Sc2ccccc21`, the LC retention time was 8.8 min.
`COc1ccc(CCN(C)CCCC(C#N)(c2ccc(OC)c(OC)c2)C(C)C)cc1OC` (centres undefined): the LC retention time was 10.6 min.
Take `CC[N+]1(C)CCCC(OC(=O)C(O)(c2ccccc2)c2ccccc2)C1` (centres undefined): the LC retention time is 3.4 min.
In the case of `C[N+]1(CCC(O)(c2ccccc2)c2cccs2)CCOCC1` (centres undefined), the LC retention time was 2.2 min.
Under `CC1CC2C(C(O)CC3(C)C2CCC3(O)C(=O)CO)C2(C)C=CC(=O)C=C12` (centres undefined) stands 14.6 min; under `CCC(=O)NS(=O)(=O)c1ccc(-c2c(-c3ccccc3)noc2C)cc1`, 21.8 min.
`CN1C(C(=O)Nc2ccccn2)=C(O)c2sccc2S1(=O)=O`: the LC retention time was 9 min.
Then `CCCN(CCC)S(=O)(=O)c1ccc(C(=O)O)cc1`, with 21.3 min; and `CC(=O)Nc1nnc(S(N)(=O)=O)s1`, with 2.3 min; and `N=C1NC(=O)C(c2ccccc2)O1` (centres undefined), with 3.4 min.
Consider `COc1ccc(CN(CCN(C)C)c2ccccn2)cc1`, for which the LC retention time was 2 min.
As for `COc1ccccc1OCC(O)COC(N)=O` (centres undefined), the LC retention time was 6.4 min.
Under `CC1(C)OC(=O)C(OCC2CC2)=C1c1ccc(S(C)(=O)=O)cc1` stands 20.4 min; under `CC(=O)N=c1sc(S(N)(=O)=O)nn1C`, 3.5 min.
Then `CCN(CC)CC(=O)Nc1c(C)cccc1C`, with 1.8 min; and `CC[N+](C)(CC)CCOC(=O)C(O)(c1ccccc1)C1CCCCC1` (centres undefined), with 9 min; and `CN1CC(O)c2cc(N=NC(N)=O)c(O)cc21` (centres undefined), with 1.7 min.
Then `O=C(c1ccccc1)c1ccc2n1CCC2C(=O)O` (centres undefined), with 16.3 min.
With `CC(=O)CCCCn1c(=O)c2c(ncn2C)n(C)c1=O`, the LC retention time is 5.4 min.
As to `CC(C)[N+](C)(CCOC(=O)C1c2ccccc2Oc2ccccc21)C(C)C`, the LC retention time was 9.8 min.
Under `CC1CC2C3CCC4=CC(=O)C=CC4(C)C3C(=O)CC2(C)C1(O)C(=O)CO` (centres undefined) stands 15.1 min; under `COc1ccccc1OCC(O)CO` (centres undefined), 5 min.
Under `CC(C)[N+]1(C)C2CCC1CC(OC(=O)C(CO)c1ccccc1)C2` (centres undefined) stands 1.4 min; under `CC[N+]1(CC)CCC(=C(c2ccccc2)c2ccccc2)C1C` (centres undefined), 9.6 min; under `CS(=O)(=O)Nc1ccc([N+](=O)[O-])cc1Oc1ccccc1`, 21.9 min.
Under `CCCC1OC2CC3C4CCC5=CC(=O)C=CC5(C)C4C(O)CC3(C)C2(C(=O)CO)O1` (centres undefined) stands 20.1 min; under `CCC1(O)CCC2C3CCC4=CC(=O)CCC4=C3C=CC21CC` (centres undefined), 22.9 min; under `CCCc1nn(C)c2c(=O)[nH]c(-c3cc(S(=O)(=O)N4CCN(C)CC4)ccc3OCC)nc12`, 8.2 min.
As to `CCCCN1CCCCC1C(=O)Nc1c(C)cccc1C` (centres undefined), the LC retention time is 2.9 min.
Turning to `CCOC(=O)c1ccc(N)cc1`, the LC retention time was 12.3 min.
On to `CC(C)(C)C(=O)SCC(=O)C1(O)CCC2C3CCC4=CC(=O)CCC4(C)C3C(O)CC21C` (centres undefined), for which the LC retention time was 24 min.
With `CC1(C)OC2CC3C4CCC5=CC(=O)C=CC5(C)C4C(O)CC3(C)C2(C(=O)CO)O1` (centres undefined), the LC retention time is 16.5 min.
